The experiment deals with T1, human TRPC6 (Homo sapiens, UniProt Q9Y210).
T1 construct: expressed in transfected cells
T1 sequence (Q9Y210 1-931): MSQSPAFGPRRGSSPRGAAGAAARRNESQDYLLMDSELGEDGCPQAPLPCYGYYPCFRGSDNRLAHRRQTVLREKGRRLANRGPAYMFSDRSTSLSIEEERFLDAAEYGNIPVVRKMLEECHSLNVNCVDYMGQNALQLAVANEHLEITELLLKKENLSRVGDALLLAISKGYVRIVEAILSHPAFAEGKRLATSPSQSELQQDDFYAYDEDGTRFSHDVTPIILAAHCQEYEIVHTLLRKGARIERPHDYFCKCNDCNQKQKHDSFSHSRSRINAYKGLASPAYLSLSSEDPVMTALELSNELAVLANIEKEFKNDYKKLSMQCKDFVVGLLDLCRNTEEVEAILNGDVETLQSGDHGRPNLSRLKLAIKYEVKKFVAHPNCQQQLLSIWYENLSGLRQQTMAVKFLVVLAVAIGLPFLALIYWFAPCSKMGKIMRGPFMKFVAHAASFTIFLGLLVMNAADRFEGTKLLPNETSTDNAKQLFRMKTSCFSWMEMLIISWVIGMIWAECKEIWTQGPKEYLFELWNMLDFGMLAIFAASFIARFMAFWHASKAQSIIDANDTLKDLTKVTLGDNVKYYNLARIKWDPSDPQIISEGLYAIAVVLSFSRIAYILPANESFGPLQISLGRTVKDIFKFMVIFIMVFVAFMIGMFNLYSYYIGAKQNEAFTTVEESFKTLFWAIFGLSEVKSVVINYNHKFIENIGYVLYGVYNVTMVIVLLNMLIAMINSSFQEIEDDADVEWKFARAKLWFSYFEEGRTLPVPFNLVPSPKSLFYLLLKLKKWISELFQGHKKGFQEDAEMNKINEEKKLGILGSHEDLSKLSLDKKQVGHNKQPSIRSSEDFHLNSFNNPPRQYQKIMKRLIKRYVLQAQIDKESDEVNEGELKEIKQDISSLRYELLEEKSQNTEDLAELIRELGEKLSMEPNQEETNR
In words: TRPC6 calcium flux assay (FLIPR, OAG-stimulated calcium influx). The following applies: HEK293 cells stably transfected with human TRPC6, read-out: hTRPC6 Potency. In kind it is cell-based. A digest of the protocol:
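HEK293 cells stably expressing human TRPC6, loaded with calcium dye 90–120 min at RT, then given compound for 25 min before OAG (50 uM final, 0.5% DMSO) in HEPES buffer pH 7.2 with 2 mM CaCl2. Background-subtracted FLIPR peak over 180 s normalized to OAG vs buffer; IC50 from dose plot.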
Background: A change in cytosolic calcium serves as a functional read-out for many receptors and channels.
For `N[C@@H]1CN(c2nc3cc(F)c(F)cc3n2Cc2cccc(OC(F)(F)F)c2)CC[C@H]1F` [Example 364, (3R,4R)-1-(5,6-difluoro-1-(3-(trifluoromethoxy)benzyl)-1H-benzimidazol-2-yl)-4-fluoro-3-piperidinamine], the IC50 is 1.02 µM.
As to `N[C@@H]1CN(c2nc3cc(F)c(F)cc3n2Cc2cccc(C(F)(F)F)c2)CC[C@H]1F` [Example 365, (3R,4R)-1-(5,6-difluoro-1-(3-(trifluoromethyl)benzyl)-1H-benzimidazol-2-yl)-4-fluoro-3-piperidinamine], the IC50 stood at 2.96 µM.
For `N#Cc1cccc(Cn2c(N3CC[C@@H](F)[C@H](N)C3)nc3cc(F)c(F)cc32)c1` [Example 366, 3-((2-((3R,4R)-3-amino-4-fluoro-1-piperidinyl)-5,6-difluoro-1H-benzimidazol-1-yl)methyl)benzonitrile] the value was 0.232 µM; for `N[C@@H]1CN(c2nc3cc(F)c(F)cc3n2Cc2cccc(Cl)c2)CC[C@H]1F` [Example 367, (3R,4R)-1-(1-(3-chlorobenzyl)-5,6-difluoro-1H-benzimidazol-2-yl)-4-fluoro-3-piperidinamine], 0.354 µM; for `N[C@H]1CCCN(c2nc3ccccc3n2Cc2ccc(F)cc2)C1` [Example 368, (S)-1-(1-(4-fluorobenzyl)-1H-benzo[d]imidazol-2-yl)piperidin-3-amine], 0.0992 µM.
As for `N[C@H]1CCCN(c2nc3ccccc3n2Cc2ccc(-c3ncon3)cc2)C1` [Example 369, (S)-1-(1-(4-(1,2,4-oxadiazol-3-yl)benzyl)-1H-benzo[d]imidazol-2-yl)piperidin-3-amine], the IC50 stood at 0.00865 µM.
Take `CS(=O)(=O)c1ccc(Cn2c(N3CCC[C@@H](N)C3)nc3ccccc32)cc1` [Example 370, (R)-1-(1-(4-(methylsulfonyl)benzyl)-1H-benzo[d]imidazol-2-yl)piperidin-3-amine]: the IC50 is greater than 50 µM.
Take `N[C@@H]1CCCN(c2nc3ccccc3n2Cc2ccc(-n3cncn3)cc2)C1` [Example 371, (R)-1-(1-(4-(1H-1,2,4-triazol-1-yl)benzyl)-1H-benzo[d]imidazol-2-yl)piperidin-3-amine]: the IC50 was found to be 6.83 µM.
For `N#Cc1ccccc1Cn1c(N2CCC[C@@H](N)C2)nc2ccccc21` [Example 372, (R)-2-((2-(3-aminopiperidin-1-yl)-1H-benzo[d]imidazol-1-yl)methyl)benzonitrile] the value was 14.1 µM; for `N[C@@H]1CCCN(c2nc3ccccc3n2Cc2c(Cl)cccc2Cl)C1` [Example 373, (R)-1-(1-(2,6-dichlorobenzyl)-1H-benzo[d]imidazol-2-yl)piperidin-3-amine], 5.85 µM.
The same measure for `N[C@@H]1CCCN(c2nc3ccccc3n2Cc2ccccc2Cl)C1` [Example 374, (R)-1-(1-(2-chlorobenzyl)-1H-benzo[d]imidazol-2-yl)piperidin-3-amine]: 3.41 µM.
With `N[C@@H]1CCCN(c2nc3ccccc3n2Cc2ccc(C(F)(F)F)cc2)C1` [Example 375, (R)-1-(1-(4-(trifluoromethyl)benzyl)-1H-benzo[d]imidazol-2-yl)piperidin-3-amine], the IC50 was 2.77 µM.
The same measure for `N[C@@H]1CCCN(c2nc3ccccc3n2Cc2ccc(OC(F)(F)F)cc2)C1` [Example 376, (R)-1-(1-(4-(trifluoromethoxy)benzyl)-1H-benzo[d]imidazol-2-yl)piperidin-3-amine]: 3.05 µM; for `N[C@@H]1CCCN(c2nc3ccccc3n2Cc2ccc(Cl)cc2)C1` [Example 377, (R)-1-(1-(4-chlorobenzyl)-1H-benzo[d]imidazol-2-yl)piperidin-3-amine]: 1.65 µM; for `N[C@@H]1CCCN(c2nc3ccccc3n2Cc2cccc(Cl)c2)C1` [Example 378, (R)-1-(1-(3-chlorobenzyl)-1H-benzo[d]imidazol-2-yl)piperidin-3-amine]: 3.08 µM.
The same measure for `CC(F)(F)c1ccc(Cn2c(N3CCC[C@@H](N)C3)nc3ccccc32)cc1` [Example 379, (R)-1-(1-(4-(1,1-difluoroethyl)benzyl)-1H-benzo[d]imidazol-2-yl)piperidin-3-amine]: 4.44 µM; for `CC(C)(C#N)c1ccc(Cn2c(N3CCC[C@@H](N)C3)nc3ccccc32)cc1` [Example 380, (R)-2-(4-((2-(3-aminopiperidin-1-yl)-1H-benzo[d]imidazol-1-yl)methyl)phenyl)-2-methylpropanenitrile]: 17 µM; for `N[C@@H]1CCCN(c2nc3ccccc3n2Cc2ccc(C(F)F)cc2)C1` [Example 381, (R)-1-(1-(4-(difluoromethyl)benzyl)-1H-benzo[d]imidazol-2-yl)piperidin-3-amine]: 5.68 µM.
For `CNC(=O)c1ccc(Cn2c(N3CCC[C@@H](N)C3)nc3ccccc32)cc1` [Example 382, (R)-4-((2-(3-aminopiperidin-1-yl)-1H-benzo[d]imidazol-1-yl)methyl)-N-methylbenzamide] the value was greater than 50 µM; for `N#Cc1ccc(Cn2c(N3CCC[C@@H](N)C3)nc3ccccc32)c(F)c1` [Example 383, (R)-4-((2-(3-aminopiperidin-1-yl)-1H-benzo[d]imidazol-1-yl)methyl)-3-fluorobenzonitrile], 0.319 µM.
Regarding `N#CCOc1ccc(Cn2c(N3CCC[C@@H](N)C3)nc3ccccc32)cc1` [Example 384, (R)-2-(4-((2-(3-aminopiperidin-1-yl)-1H-benzo[d]imidazol-1-yl)methyl)phenoxy) acetonitrile], the IC50 was found to be 16 µM.
Regarding `CN(C)S(=O)(=O)c1ccc(Cn2c(N3CCC[C@@H](N)C3)nc3ccccc32)cc1` [Example 385, (R)-4-((2-(3-aminopiperidin-1-yl)-1H-benzo[d]imidazol-1-yl)methyl)-N,N-dimethylbenzenesulfon-amide], the IC50 is greater than 50 µM.
For `Cc1ccc(Cn2c(N3CCC[C@@H](N)C3)nc3ccccc32)cc1` [Example 386, (R)-1-(1-(4-methylbenzyl)-1H-benzo[d]imidazol-2-yl)piperidin-3-amine] the value was 4.26 µM; for `N[C@@H]1CCCN(c2nc3ccccc3n2Cc2ccc(F)cc2)C1` [Example 387, (R)-1-(1-(4-fluorobenzyl)-1H-benzo[d]imidazol-2-yl)piperidin-3-amine], 5.36 µM.
The same measure for `N[C@@H]1CCCN(c2nc3ccccc3n2Cc2ccc(F)cc2F)C1` [Example 389, (R)-1-(1-(2,4-difluorobenzyl)-1H-benzo[d]imidazol-2-yl)piperidin-3-amine]: 4.58 µM; for `N[C@@H]1CCCN(c2nc3ccccc3n2Cc2ccc(F)c(F)c2)C1` [Example 390, (R)-1-(1-(3,4-difluorobenzyl)-1H-benzo[d]imidazol-2-yl)piperidin-3-amine]: 3.57 µM; for `N[C@@H]1CCCN(c2nc3ccccc3n2Cc2ccc(Cl)c(F)c2)C1` [Example 391, (R)-1-(1-(4-chloro-3-fluorobenzyl)-1H-benzo[d]imidazol-2-yl)piperidin-3-amine]: 1.82 µM.
On to `N[C@@H]1CCCN(c2nc3ccccc3n2Cc2cc(-c3cccc(Cl)c3)no2)C1` [Example 392, (R)-1-(1-((3-(3-chlorophenyl)isoxazol-5-yl)methyl)-1H-benzo[d]imidazol-2-yl)piperidin-3-amine], for which the IC50 worked out at 2.24 µM.
Turning to `COc1ccc(Cn2c(N3CCC[C@@H](N)C3)nc3ccccc32)cc1Cl` [Example 393, (R)-1-(1-(3-chloro-4-methoxybenzyl)-1H-benzo[d]imidazol-2-yl)piperidin-3-amine], the IC50 turned out to be 5.05 µM.

These data come from patent US11332459B2 (TEIJIN PHARMA LIMITED, priority 2017, dated 2022).
